# From patent US12071414B2, “Apelin receptor agonists and methods of use thereof” (Sanford Burnham Prebys Medical Discovery Institute, priority 2015, dated 2024)
# Molecular target: T1, human apelin receptor (APJ, AGTRL-one, APLNR) (Homo sapiens, UniProt P35414)
# T1 construct: host or cells: Chinese hamster ovary cells, stably integrated receptor
# T1 sequence (P35414 1-380): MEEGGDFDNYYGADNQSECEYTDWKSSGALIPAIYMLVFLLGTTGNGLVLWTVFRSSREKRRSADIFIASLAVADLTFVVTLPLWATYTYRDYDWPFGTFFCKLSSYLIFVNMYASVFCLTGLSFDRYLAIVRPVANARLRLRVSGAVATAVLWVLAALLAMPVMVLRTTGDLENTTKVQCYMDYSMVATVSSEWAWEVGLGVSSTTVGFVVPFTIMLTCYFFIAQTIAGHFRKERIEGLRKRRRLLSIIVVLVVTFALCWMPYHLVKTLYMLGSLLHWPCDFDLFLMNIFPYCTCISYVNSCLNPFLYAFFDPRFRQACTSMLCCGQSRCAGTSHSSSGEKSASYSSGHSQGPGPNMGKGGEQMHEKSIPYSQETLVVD
# Assay: cell-based cAMP TR-FRET assay of apelin receptor activation
# Conditions: CHO cells expressing human APJ, forskolin-stimulated cAMP, 0.5 h incubation, 50% of control (apelin-13, 1 nM) response; read-out: Potency Category (EC50)
# Procedure: The assays disclosed herein were performed using cell lines from DiscoveX, Inc. Biological activity was determined to the cell—based assay. This assay detects activation of the receptor by reporting on intracellular cyclic adenosine monophosphate (cAMP) level. Chinese hamster ovary cells engineered to express the stably integrated human apelin receptor (APJ, AGTRL—one, APLNR), pleaded into the wells of the microtiter plate. Cells were stimulated with […] to increase intracellular cyclic AMP. Immediately following, compounds were added to the range of final concentrations 0.0-100 μM, in DMSO (not to exceed a final DMSO concentration greater than 1% ν/ν), and allowed to incubate with the cells for 0.5 h. At the end of the incubation, cells were lysed to stop APJ signaling and cAMP was quantified using a commercially available competitive immunoassay kit that applies homogenous time—resolved florescence energy transfer (TR—FRET). The assay is based on the competition between a europium (Eu) chelate—labeled cAMP donor tracer and cellular cAMP for binding sites on a cAMP—specific monoclonal antibody labeled with an acceptor fluorophore. When antibodies are bound to the cAMP tracer light emissions at 320 nm stimulate the energy transfer from the donor to the acceptor, which in turn emits light at 665 nm. In the presence of competitive unlabeled cAMP (derived from the activity of the receptor or forskolin-stimulated production of cAMP), the labelled cAMP tracer is dissociated from the cAMP antibody, resulting in a loss of FRET signal. The amount of light emitted by the FRET is inversely proportional to the cAMP generated by the cell/receptor system. Potency and efficacy at APJ are reported in reference to the canonical APJ receptor agonist apelin—13 when tested at 1 nM. […] Compound efficacy (% response) is reported as a percentage of the maximal apein-13 response at 1 nM (control). Potencies were calculated by fitting a […] logistic curve to concentration response consisting of at least 10 discrete data points spanning effective range of the compounds in the cell-based assay that measures cAMP. […] Category B is 200-500 nM; Category C is 100-200 nM; Category D is 50-100 nM; and Category E is <50 nM.
row,Compound,EC50
1,CCS(=O)(=O)c1ccc(C(Oc2cccc(Cl)c2)C(=O)Nc2nc3cc(OC)c(OC)cc3s2)cc1 (stereo not shown),> 500 nM
2,CCS(=O)(=O)c1ccc(C(Oc2ccc(C#N)cc2)C(=O)Nc2nc3cnc(OC)cc3s2)cc1 (stereo not shown),> 500 nM
3,CCS(=O)(=O)c1cccc(C(Oc2ccc(C#N)cc2)C(=O)Nc2nc3ccc(OCCOC)cc3s2)c1 (stereo not shown),> 500 nM
4,COc1cc2nc(NC(=O)C(Oc3ccc(C#N)cc3)c3ccc(F)cc3)sc2cc1OC (stereo not shown),200 to 500 nM
5,CCS(=O)(=O)c1ccc(C(Nc2ccccc2C)C(=O)Nc2nc3cc(OC)c(OC)cc3s2)cc1 (stereo not shown),> 500 nM
6,CCS(=O)(=O)c1ccc(C(Oc2ccc(C#N)cc2)C(=O)Nc2nc3ccccc3o2)cc1 (stereo not shown),> 500 nM
7,CCS(=O)(=O)c1ccc(C(OCCCOC)C(=O)Nc2nc3cc(OC)c(OC)cc3s2)cc1 (stereo not shown),> 500 nM
8,CCS(=O)(=O)c1ccc(C(Oc2ccc(C#N)cc2)C(=O)Nc2nc3cc(OCCF)c(OC)cc3s2)cc1 (stereo not shown),< 50 nM
9,COCCNC(=O)c1ccc(OC(C(=O)Nc2nc3cc(OC)c(OC)cc3s2)c2ccc(C#N)cc2)cc1 (stereo not shown),> 500 nM
10,CCS(=O)(=O)c1ccc(C(Oc2ccc(C#N)cc2)C(=O)Nc2nc3cc(OCCO)c(OC)cc3s2)cc1 (stereo not shown),200 to 500 nM
11,CCS(=O)(=O)c1ccc(C(OCc2ccccc2)C(=O)Nc2nc3cc(OC)c(OC)cc3s2)cc1 (stereo not shown),> 500 nM
12,COc1cc2nc(NC(=O)C(Oc3ccc(C#N)cc3)c3ccc(S(=O)(=O)c4ccc(Cl)cc4)cc3)sc2cc1OC (stereo not shown),200 to 500 nM
13,CCS(=O)(=O)c1ccc(C(Oc2ccc(C#N)cc2)C(=O)Nc2nc3cc(F)c(OC)cc3s2)cc1 (stereo not shown),> 500 nM
14,CCS(=O)(=O)c1ccc(C(Oc2ccc(C#N)cc2)C(=O)Nc2nc3cc(OCc4ccccc4)c(OC)cc3s2)cc1 (stereo not shown),> 500 nM
15,CCOc1cc2nc(NC(=O)C(Oc3ccc(C#N)cc3)c3ccc(S(=O)(=O)CC)cc3)sc2cc1OC (stereo not shown),< 50 nM
16,COc1cc2nc(NC(=O)C(Oc3ccc(C(=O)NCCN(C)C)cc3)c3ccc(C#N)cc3)sc2cc1OC (stereo not shown),50 to 100 nM
17,COc1ccc(S(=O)(=O)c2ccccc2C(Oc2ccc(C#N)cc2)C(=O)Nc2nc3cc(OC)c(OC)cc3s2)cc1 (stereo not shown),100 to 200 nM

row,Compound,EC50
1,CCS(=O)(=O)c1ccc(C(Oc2cccc3ccccc23)C(=O)Nc2nc3cc(OC)c(OC)cc3s2)cc1 (stereo not shown),> 500 nM
2,CCS(=O)(=O)c1ccc(C(OC2CCOCC2)C(=O)Nc2nc3cc(OC)c(OC)cc3s2)cc1 (stereo not shown),> 500 nM
3,CCCCOc1ccc(OC(C(=O)Nc2nc3cc(OC)c(OC)cc3s2)c2ccc(S(=O)(=O)CC)cc2)cc1 (stereo not shown),> 500 nM
4,COc1cc2nc(NC(=O)C(Oc3ccc(C#N)cc3)c3ccc(C(=O)N4CCNCC4)cc3)sc2cc1OC (stereo not shown),200 to 500 nM
5,CCS(=O)(=O)c1ccccc1C(Oc1ccc(C#N)cc1)C(=O)Nc1nc2cc(OC)c(OC)cc2s1 (stereo not shown),< 50 nM
6,COc1cc2nc(NC(=O)C(Oc3ccc(C#N)cc3)c3ccc(C(=O)NCCN4CCOCC4)cc3)sc2cc1OC (stereo not shown),100 to 200 nM
7,COc1cc2nc(NC(=O)C(Oc3ccc(C#N)cc3)c3ccc(S(=O)(=O)N(C)C)cc3)sc2cc1OC (stereo not shown),< 50 nM
8,COc1cc2nc(NC(=O)C(Oc3ccc(C#N)cc3)c3cccc(Br)c3)sc2cc1OC (stereo not shown),> 500 nM
9,CCS(=O)(=O)c1ccc(C(Oc2ccc(C#N)cc2)C(=O)N(C)c2nc3cc(OC)c(OC)cc3s2)cc1 (stereo not shown),50 to 100 nM
10,CCCOc1ccc(OC(C(=O)Nc2nc3cc(OC)c(OC)cc3s2)c2ccc(S(=O)(=O)CC)cc2)cc1 (stereo not shown),200 to 500 nM
11,CCS(=O)(=O)c1ccc(C(Oc2ccc(C(=O)O)cc2)C(=O)Nc2nc3cc(OC)c(OC)cc3s2)cc1 (stereo not shown),> 500 nM
12,CCN(CC)c1ccc2sc(NC(=O)Cc3ccc(S(=O)(=O)CC)cc3)nc2c1,> 500 nM
13,CCS(=O)(=O)c1ccc(C(Oc2ccccc2Cl)C(=O)Nc2nc3cc(OC)c(OC)cc3s2)cc1 (stereo not shown),> 500 nM
14,CCS(=O)(=O)c1cccc(CC(=O)Nc2nc3cc(OC)c(OC)cc3s2)c1,> 500 nM
15,CCS(=O)(=O)c1ccc(C(Oc2ccc(F)cc2)C(=O)Nc2nc3cc(OC)c(OC)cc3s2)cc1 (stereo not shown),> 500 nM
16,COc1cc2nc(NC(=O)C(Oc3ccc(C#N)cc3)c3ccc(-c4nnn[nH]4)cc3)sc2cc1OC (stereo not shown),> 500 nM
17,CCS(=O)(=O)c1ccc(C(Oc2ccc3ccccc3c2)C(=O)Nc2nc3cc(OC)c(OC)cc3s2)cc1 (stereo not shown),> 500 nM
